Results: ChEMBL document CHEMBL5728675, “5-alkyl pyrrolidine orexin receptor agonists” (2021)

Target: T1, Orexin receptor type 2 (Homo sapiens, UniProt O43614)
T1 sequence (O43614 whole entry): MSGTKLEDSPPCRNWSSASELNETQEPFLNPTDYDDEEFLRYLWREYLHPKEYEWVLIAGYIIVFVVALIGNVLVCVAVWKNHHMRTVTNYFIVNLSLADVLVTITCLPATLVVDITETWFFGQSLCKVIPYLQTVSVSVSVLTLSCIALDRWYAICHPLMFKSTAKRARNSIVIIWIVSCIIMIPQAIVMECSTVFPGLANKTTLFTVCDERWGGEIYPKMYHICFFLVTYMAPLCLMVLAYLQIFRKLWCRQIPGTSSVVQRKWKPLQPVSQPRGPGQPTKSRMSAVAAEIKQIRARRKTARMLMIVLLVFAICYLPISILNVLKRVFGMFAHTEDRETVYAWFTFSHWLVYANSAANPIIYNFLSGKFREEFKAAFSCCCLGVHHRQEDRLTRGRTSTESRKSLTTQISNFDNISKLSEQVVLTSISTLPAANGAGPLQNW
Assay: Receptor Activity Assay: In a typical experiment, the OX1 and OX2 receptor agonist activity is determined in accordance with the following general experimental method.

SMILES | IC50 [nM]
COC(=O)N1[C@H](C)C[C@H](NS(=O)(=O)N(C)C)[C@@H]1CO[C@H]1CC[C@@H](c2ccccc2F)CC1 | 0.92
CCc1ccccc1[C@H]1CC[C@@H](OC[C@H]2[C@@H](NS(=O)(=O)N(C)C)C[C@@H](C)N2C(=O)OC)CC1 | 2.2
COC(=O)N1C(C2CC2)C[C@H](NS(C)(=O)=O)C1COC1CCC(c2ccccc2)CC1 (stereo partly specified) | 73.5
COC(=O)N1[C@H](C)C[C@H](NS(=O)(=O)N(C)C)[C@@H]1CO[C@H]1CC[C@H](c2ccc(C#N)c(C)c2)CC1 | 12.5
COC(=O)N1[C@H](C)C[C@H](NS(=O)(=O)N(C)C)[C@@H]1CO[C@@H]1CC[C@H](c2ccccc2)CC1F (stereo partly specified) | 10.8
CC(C)OC(=O)N1[C@H](C)C[C@H](NS(=O)(=O)N(C)C)[C@@H]1COC1CCN(c2ncc(F)cn2)CC1 | 1.15
C[C@@H]1C[C@H](NS(=O)(=O)N(C)C)[C@H](CO[C@H]2CC[C@@H](c3cc(F)ccc3F)CC2)N1C(=O)OCC(F)F | 0.66
COCCS(=O)(=O)N[C@H]1C[C@@H](C)N(C(=O)OC)[C@H]1COC1CCC(c2cccc(F)c2)CC1 (stereo partly specified) | 4.6
COC(=O)N1[C@H](C)C[C@H](NS(=O)(=O)N(C)CC#N)[C@@H]1CO[C@H]1CC[C@@H](c2cccc(F)c2)CC1 | 0.6
C=C[C@@H]1C[C@H](NS(C)(=O)=O)[C@H](CO[C@H]2CC[C@@H](c3ccccc3)CC2)N1C(=O)OC (relative stereo) | 9.4
COC(=O)N1[C@H](C)C[C@H](NS(C)(=O)=O)[C@@H]1CO[C@H]1CC[C@@H](c2cc(F)ccc2F)CC1 | 1.67
COC(=O)N1[C@H](C)C[C@H](NS(C)(=O)=O)[C@@H]1CO[C@H]1CC[C@@H](c2c(F)ccc(F)c2F)CC1 | 1.07
COC(=O)N1[C@H](C)C[C@H](NS(=O)(=O)CF)[C@@H]1CO[C@H]1CC[C@@H](c2ccccc2)CC1 | 0.93
COC(=O)N1[C@H](C)C[C@H](NS(=O)(=O)N(C)C)[C@@H]1CO[C@H]1CC[C@@H](c2cc(F)cc(F)c2)CC1 | 0.52
COC(=O)N1[C@H](C)C[C@H](NS(=O)(=O)CF)[C@@H]1COC1CCC(c2cccc(F)c2)CC1 (stereo partly specified) | 1.4
COC(=O)N1[C@H](C)C[C@H](NS(C)(=O)=O)[C@@H]1CO[C@H]1CC[C@@H](c2ccc(F)c(F)c2)CC1 | 25.5
COC(=O)N1[C@H](C)C[C@H](NS(=O)(=O)N(C)C)[C@@H]1CO[C@@H]1CC[C@H](c2cccc(F)c2)CC1F (stereo partly specified) | 3.63
CCc1ccccc1[C@H]1CC[C@H](OC[C@H]2[C@@H](NS(=O)(=O)N(C)C)C[C@@H](C)N2C(=O)OC)CC1 | 111
COC(=O)N1[C@H](C)C[C@H](NS(C)(=O)=O)[C@@H]1CO[C@H]1CC[C@@H](c2ccccc2C(F)(F)F)CC1 | 6.82
CC[C@@H]1C[C@H](NS(C)(=O)=O)[C@H](CO[C@H]2CC[C@@H](c3ccccc3)CC2)N1C(=O)OC | 3
COC(=O)N1[C@H](C)C[C@H](NS(=O)(=O)CC(F)F)[C@@H]1CO[C@H]1CC[C@@H](c2cccc(F)c2)CC1 | 5.2
COC(=O)N1[C@H](C)C[C@H](NS(=O)(=O)N(C)C)[C@@H]1CO[C@H]1CC[C@@H](c2ccc(C#N)c(C)c2)CC1 | 1.1
CC[C@H]1C[C@@H](NS(C)(=O)=O)[C@@H](CO[C@H]2CC[C@@H](c3ccccc3)CC2)N1C(=O)OC | 7330
COC[C@@H]1C[C@H](NS(=O)(=O)N(C)C)[C@H](CO[C@H]2CC[C@@H](c3cccc(F)c3)CC2)N1C(=O)OC | 0.7
COC(=O)N1[C@H](C)C[C@H](NS(C)(=O)=O)[C@@H]1CO[C@H]1CC[C@@H](C(C)C)CC1 | 17.7
COC(=O)N1[C@H](C)C[C@H](NS(=O)(=O)N(C)C)[C@@H]1CO[C@H]1CC[C@@H](c2cc(F)ccc2F)CC1 | 0.47
